Experimental data reported in patent US6322532A, “Sonophoresis method and apparatus” (3M Innovative Properties Company, priority 1999, dated 2001).

Experiment: Franz diffusion cell permeation of salicylic acid across cadaver skin with/without flexure mode sonophoresis transducer
Design: species or system human
Protocol: A similar experiment to that described in Example 1 was carried out using salicylic acid. […] About 20 ml donor solution (ppb) with excess (beyond solubility levels) of salicylic acid was added to the upper portion of the Franz cells atop the cadaver skin.

## O=C(O)c1ccccc1O [salicylic acid]
Active cells, about 2 W/cm^2, about 27 kHz, about 200 V (rms), continuous duty cycle, about 7 cm^2 cadaver skin, first few hours
  average sonophoretic drug flux: about 700 micrograms/cm^2 /hr
Four passive cells, no sonophoresis transducer, 2 cm^2 cadaver skin, 10 ml receptor fluid, 5 hr experiment
  average passive drug flux: about 200 micrograms/cm^2 /hr
